≈ marks a conversion by molar mass, not a printed value.

1 compound from paper PMC10783087 (Microbiology Spectrum, 2023) can be followed below.

Common to all, as to format: cell-based
Experiment [1] concerns M. avium ATC 700891 (MAC 101). The experiment in a line: In vitro MIC against NTM, microbroth dilution. To be noted: Mycobacterium avium, 168 h; 7 days. (Broth dilution looks for growth in wells or tubes with falling amounts of substance.)
The subject of a further experiment is M. abscessus ATCC 19977. The experiment in a line: In vitro MIC against NTM, microbroth dilution. The conditions noted are these: Mycobacteroides abscessus, ATCC19977, 168 h; 7 days.
Experiment [2] deals with M. avium ATC 700891 (MAC 101) in THP-1 cells. The experiment is described as follows: Ex vivo (intra-macrophage) activity in infected THP-1 cells, resazurin. The protocol:
(§1) THP-1 cells were infected with either M. avium or M. abscessus at an MOI of 10 for 4 h prior to treatment. Following infection, cells were washed twice with PBS to remove non-phagocytosed bacteria. Fresh medium was then added, and cells were treated with concentrations ranging from 64 to 0.24 µg/mL and incubated for 24 h at 37°C with 5% CO2. Following 24 h of treatment, cells were treated with resazurin (0.04 mg/mL) and incubated for an additional 3–5 days. Absorbance was measured for each well at 570 and 600 nm. The percent growth reduction was calculated relative to treated and untreated controls.

In experiment [3] the test system is M. abscessus ATCC 19977 in THP-1 cells. The description is as above. The protocol:
as §1

As for `CC[C@H]1OC(=O)[C@H](C)[C@@H](O[C@H]2C[C@@](C)(OC)[C@@H](O)[C@H](C)O2)[C@H](C)[C@@H](O[C@@H]2O[C@H](C)C[C@H](N(C)C)[C@H]2O)[C@](C)(OC)C[C@@H](C)C(=O)[C@H](C)[C@@H](O)[C@]1(C)O` [Clarithromycin], the minimal inhibitory concentration (MIC) in experiment [1] amounted to 0.08 µM (≈ 0.0598 µg/mL); against M. abscessus ATCC 19977 it was 1.4 µM (≈ 1.05 µg/mL). Further, the “Ex vivo (>90% inhibition), M. avium ATC 700891 (MAC 101)” value in experiment [2] was found to be 171 µM. Further, the “Ex vivo (>90% inhibition), M. abscessus ATCC 19977” value in experiment [3] came out at 86 µM.

One may read the MIC as the smallest concentration in the dilution series that meets the test's criterion for growth inhibition. A higher MIC goes with a less susceptible organism.
